Data as given in PMC7978038 (Molecular pharmaceutics, 2019).
Where two headings read alike, the source gives them in different places.

Tests used:
[1] = mice, cited from earlier work
in vivo [2] = conditions: male, beagle, dog, po, 1 mg/kg
[3] = mice, 10 mg/kg 2-PMPA equivalent dose, mean ± SEM, n = 3
[4] = oral 2-PMPA; cited from earlier work
[5] = system: 100 different transporters, enzymes, and receptors, including several glutamate targets; conditions: selectivity; cited from earlier work
in vivo [6] = conditions: male, CD-1, mouse, iv, 10 mg/kg
[7] = dog, microsomes
[8] = human, microsomes
[9] = mouse, microsomes

SMILES	2-PMPA plasma AUC0−t ([1]; oral 2-PMPA, ref our previously published manuscript) [nM·h]	oral bioavailability ([1]; oral) [%]	AUC(0-t) (in vivo [2]) [nM·h]	Cmax (in vivo [2]) [µM]	Tmax (in vivo [2]) [h]	2-PMPA plasma concentration at 30 min post oral administration [3] [nmol/mL]	oral bioavailability (F) [4] [%]	2-PMPA brain AUC0−t (mice, IV, 10 mg/kg) [nmol·h/g]	2-PMPA brain Cmax (mice, IV, 10 mg/kg) [nmol/g]	activity at 100 different transporters, enzymes, and receptors [5]	AUC(0-t) (in vivo [6]) [nM·h]	Cmax (in vivo [6]) [µM]	Kp (in vivo [6])	fold enhancement in 2-PMPA systemic availability versus orally administered 2-PMPA ([1]; oral) [fold]	Intestinal microsomal stability, intact prodrug level at the end of 1 h incubation [7]	Intestinal microsomal stability, intact prodrug level at the end of 1 h incubation [8]	Intestinal microsomal stability, intact prodrug level at the end of 1 h incubation [9]	metabolites (including 2 and 3) detected in plasma (mouse, in vivo, po)
O=C(O)CCC(CP(=O)(O)O)C(=O)O (stereo not shown) [Prodrug 2-PMPA, 2-(Phosphonomethyl)-pentanedioic acid]	650 ± 130	< 1	1440	0.4	2	0.25 ± 0.02	< 1	1.6 ± 0.2	1.2 ± 0.1	no activity	104000 ± 19000	109 ± 9.5	0.015	–	–	–	–	–
CC(C)OC(=O)OCOC(=O)C(CCC(=O)O)CP(=O)(OCOC(=O)OC(C)C)OCOC(=O)OC(C)C (stereo not shown) [Prodrug 21b]	–	11.5	–	–	–	–	–	–	–	–	–	–	–	20	–	–	–	–
Cc1oc(=O)oc1COC(=O)CCC(CP(=O)(OCc1oc(=O)oc1C)OCc1oc(=O)oc1C)C(=O)OCc1oc(=O)oc1C (stereo not shown) [Prodrug 4]	–	–	–	–	–	–	–	–	–	–	–	–	–	–	did not show any intact prodrug level	did not show any intact prodrug level	did not show any intact prodrug level	No metabolites, including 2 and 3, were detected
